Source: patent US10329542B2, “HBV RNAse H purification and enzyme inhibitors” (Saint Louis University, priority 2012, dated 2019)

Columns and labels:
[1] = biological target: T1, HBV genotype D RNAseH (HRHPL) (Hepatitis B virus genotype D subtype ayw, UniProt P03156, INS679M); assay: Oligonucleotide-directed RNAseH cleavage assay, HBV genotype D; format: biochemical; details: for Residual activity at 10 uM, Genotype D: ± standard deviation, 3 to 7 replicates; for Activity vs. HBV Biochemical vs. gtD: class by concentration giving inhibition (10, 20, 60 μM)
T1 construct: HRHPL contains HBV genotype D (Genbank V01460) polymerase residues 684-845; made in house; host or cells: E. coli BL21 codon+
T1 sequence (P03156 680-832, added parts left off, stated change not applied): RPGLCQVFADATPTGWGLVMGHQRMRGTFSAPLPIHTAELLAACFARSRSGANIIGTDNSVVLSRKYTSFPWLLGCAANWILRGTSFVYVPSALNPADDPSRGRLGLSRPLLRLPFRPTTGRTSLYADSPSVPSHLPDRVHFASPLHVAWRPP
Method: (§1) For the oligonucleotide-directed RNAseH cleavage assay (Gong et al., 2001), 6 μl protein extract (typical protein concentration 2.8 mg/ml) was mixed with 0.5 μg internally ^32P-labeled DRF+ RNA (nucleotides 2401-2605 of the duck HBV genome plus 60 nucleotides of flanking sequences from pBluescript) and 3 μg oligonucleotide D2507- or its corresponding negative control D2526+ on ice in 20 μl under the conditions in Table 1. Some reactions in FIG. 5 employed oligonucleotide D2543M-Sal or its D2453+ negative control as indicated. The reactions were incubated at 42° C. for 90 min. and terminated by addition of Laemmli protein loading buffer and boiling. The samples were resolved by 12% SDS-PAGE, the gels were stained with Coomassie blue to monitor protein loading, and labeled RNA was detected by autoradiography. Candidate inhibitors were dissolved in DMSO and added at the indicated concentrations during assembly of the reactions. Control reactions lacking the compounds contained DMSO as a vehicle control. The RNAseH autoradiograms were scanned and quantified with ImageJ.
(§2) Oligonucleotide-directed RNAseH cleavage assays (Gong et al., 2001) were performed as described (Tavis et al., 2013). Briefly, HBV RNAseH extracts were mixed with a 264 nt-long internally ^32P-labeled RNA plus an excess of a complementary DNA oligonucleotide or its inverse-complement as a negative control in a final concentration of 65 mM Tris pH 8.0, 190 mM NaCl, 5 mM MgCl2, 5 mM dTT, 0.05% NP40, and 6% glycerol. βTJ was dissolved in DMSO and added at the indicated concentrations; the final concentration of DMSO in all reactions was 1%. The reactions were incubated at 42° C. for 90 min. and terminated by addition of Laemmli protein electrophoresis buffer. The samples were resolved by SDS-PAGE, labeled RNA was detected by autoradiography, the autoradiograms were scanned, and the RNA cleavage products were quantified with ImageJ (National Institutes of Health). IC50 values were calculated by non-linear regression using GraphPad Prism (GraphPad Software, Inc.).

HBV = HBV genomic replication assays (Table 2); format: cell-based, Hepatitis B virus; details: class by active concentration
Method: Huh7 cells were maintained in Dulbecco's modified Eagle's medium with 10% fetal bovine serum at 37° C. in 5% CO2. Cells were seeded into 60 mm dishes and transfected at 70% confluency with 2.6 μg of plasmids using TransIT-LT1 (Mirus, Inc.). Test compounds were added the morning following transfection at 10 or 50 μM, and fresh medium containing the compounds was provided every 1-2 days. Four or five days post-transfection HBV cores were isolated by lysis of the cells in 10 mM Tris pH 7.5, 1 mM EDTA, 0.25% NP40, 50 mM NaCl, and 8% sucrose followed by sedimentation through a 30% sucrose cushion as described (Travis, et al., 1998). Viral DNAs were isolated from cytoplasmic core particle preparations by proteinase K digestion followed by phenol/chloroform extraction as described (Gong et al., 2001). Duplicate aliquots of the nucleic acids were treated with 2 U E. coli DNAse-free RNAseH (Invitrogen) at 37° C. for 30 min. or were mock treated. The nucleic acid samples were resolved by electrophoresis on 1.2% agarose gels and detected by Southern blotting with ^32P-labeled HBV DNA as a probe. […]

[2] = biological target: T2, chimeric HBV:HIV RNAseH HHC1 (Hepatitis B virus genotype D subtype ayw, UniProt P03156, DELINS787-795[…]/INS679M); assay: Oligonucleotide-directed RNAseH cleavage assay, chimeric HHC1; format: biochemical; details: 10 μM; ± standard deviation, 3 to 7 replicates
T2 construct: HHC1 is an HRHPL derivative; made in house; host or cells: E. coli BL21 codon+
T2 sequence (P03156 680-786, added parts left off, stated change not applied): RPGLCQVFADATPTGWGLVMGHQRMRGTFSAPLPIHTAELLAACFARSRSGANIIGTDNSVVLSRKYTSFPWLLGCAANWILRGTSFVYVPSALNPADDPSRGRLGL
Text: pCMV-HBV-LE-(CMV-HBV) is an HBV over-length genomic expression vector containing 1.2 copies of the HBV(adw2) genome (Genbank X02763.1) downstream of the CMV promoter cloned into pBS (Promega). Surface protein expression from this vector is ablated by mutating the preS and S open reading frames. pCMV-HBV(genotype D) is an analogous HBV genomic expression construct and was a gift from Dr. Shuping Tong (Brown University). For bacterial expression, codon-optimized cDNA sequences for HRHPL (genotypes A, B, C, D, and H), and noncodon-optimized sequences for HHC1 and HHC2 were cloned by gene synthesis (Genscript) between the NcoI and EcoRI sites into pTrcHis2B (Invitrogen) with a C-terminal hexahistidine tag. HRHPL contains HBV genotype D (Genbank V01460) polymerase residues 684-845. HHC1 is an HRHPL derivative in which HBV polymerase residues 800-808 were replaced with HIV residues corresponding to the RNAseH helix D ([…]; SEQ ID NO:6). HHC2 is an HRHPL derivative in which HBV polymerase residues 800-845 were replaced with HIV residues corresponding to the RNAseH helix D to the C-terminus ([…]; SEQ ID NO:7). The human RNAseH1 gene (NP_002927.2) was cloned with an N-terminal hexahistidine-tag between the BamHI and XhoI sites of pRsetB (Invitrogen) by gene synthesis.
as §1, with “ImageJ. The oligonucleotides were: D2526+([…]; SEQ ID NO:8), D2507-([…]; SEQ ID NO:9), D2453+([…]; SEQ ID NO:10), and D2543M-Sal ([…]; SEQ ID NO:11).” for “ImageJ.”

human RNAseH1 = biological target: T3, human RNAseH1 (Homo sapiens, UniProt O60930); assay: Oligonucleotide-directed RNAseH assay, recombinant human RNAseH1; format: biochemical; details: for Activity vs. human RNAseH1: class by concentration giving inhibition (10, 20, 60 μM)
T3 construct: hexahistidine (N); made in house; host or cells: E. coli BL21 codon+
T3 sequence (O60930 1-286): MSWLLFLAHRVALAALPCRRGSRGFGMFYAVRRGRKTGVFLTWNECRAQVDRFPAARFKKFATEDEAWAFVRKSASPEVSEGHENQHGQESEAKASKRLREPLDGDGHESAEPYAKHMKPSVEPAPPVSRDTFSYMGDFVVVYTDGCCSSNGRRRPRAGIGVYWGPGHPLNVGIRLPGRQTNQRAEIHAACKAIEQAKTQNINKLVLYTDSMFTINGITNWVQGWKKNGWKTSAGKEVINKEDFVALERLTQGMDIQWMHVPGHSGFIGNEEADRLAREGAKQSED
Method: as §1, with “ImageJ. The oligonucleotides were: D2526+([…]; SEQ ID NO:8), D2507-([…]; SEQ ID NO:9), D2453+([…]; SEQ ID NO:10), and D2543M-Sal ([…]; SEQ ID NO:11).” for “ImageJ.”
Therefore, the inventors cloned the human RNAseH1 with an N-terminal hexahistidine tag, expressed it in E. coli, and purified the protein by nickel affinity chromatography. […] This enzyme was active in the oligonucleotide-directed and fluorescent RNAseH assays (FIG. 10B and data not shown). To determine how inhibition of human RNAseH1 compared to inhibition of the HBV RNAseH, the inventor titrated the RNAaseH1 enzyme to yield similar levels of activity as the HBV enzyme, and then the inventor directly compared the ability of compounds #8-12 to inhibit human RNAseH1 and HRHPL at 10 μM. […] Therefore, it is possible to inhibit the HBV RNAseH without inhibiting human RNAseH1.
as §2

HBV genotype H RNAseH = assay: Oligonucleotide-directed RNAseH cleavage assay, HBV genotype H; format: biochemical, Hepatitis B virus; details: 10 μM; for Residual activity at 10 uM, Genotype H: ± standard deviation, 3 to 7 replicates
Method: as §1, with “ImageJ. The oligonucleotides were: D2526+([…]; SEQ ID NO:8), D2507-([…]; SEQ ID NO:9), D2453+([…]; SEQ ID NO:10), and D2543M-Sal ([…]; SEQ ID NO:11).” for “ImageJ.”
as §2

SMILES | Residual activity at 10 uM, Genotype D [1] [Percent DMSO control] | Activity vs. HBV Biochemical vs. gtD [1] | Activity vs. HBV Genomic Replication (HBV) | Residual activity at 10 uM, HHC1 [2] [Percent DMSO control] | Inhibition of human RNAseH1 (human RNAseH1; 10 μM, compared directly with HRHPL) | Activity vs. human RNAseH1 (human RNAseH1) | Residual activity at 10 uM, Genotype H (HBV genotype H RNAseH) [Percent DMSO control] | Inhibition of HBV genotype H RNAseH (HBV genotype H RNAseH; below threshold of irrelevant controls)
O=c1c(O)c(-c2cc(O)c(O)c(O)c2)oc2cc(O)cc(O)c12 [Compound 9] | 33 ± 10 | ++ (++ inhibition at 20 μM) | − (− no activity at 60 μM) | 58 ± 15 | inhibited it weakly | ++ (++ inhibition at 20 μM) | 66 ± 23 | 
CN(C)c1ccc(-c2c3cc(O)c(=O)cc-3oc3cc(O)c(O)cc23)cc1 [Compound 35] | 27 ± 14 | +++ (+++ inhibition at 10 μM) | − (− no activity at 60 μM) | 39 ± 9 |  | +++ (+++ inhibition at 10 μM) | 38 ± 20 | 
Cc1sc2nc(-c3ccc([N+](=O)[O-])cc3)[nH]c(=O)c2c1C [Compound 38] | 24 ± 1 | +++ (+++ inhibition at 10 μM) | − (− no activity at 60 μM) | 32 ± 4 |  |  | 38 ± 25 | 
COc1ccc2ccccc2c1C=NNC(=O)c1ccc(O)c(O)c1 [Compound 13] | 52 ± 12 | − (− no inhibition at 60 μM) | − (− no activity at 60 μM) | 65 ± 14 |  |  | 42 ± 26 | 
NC(=O)c1c(N)sc2c1CCCCC2 [Compound 3] | 43 ± 14 | − (− no inhibition at 60 μM) | − (− no activity at 60 μM) | 60 ± 19 |  |  | 68 ± 14 | 
O=c1cc2oc3cc(O)c(O)cc3c(-c3ccccc3)c-2cc1O [Compound 31] | 26 ± 15 | +++ (+++ inhibition at 10 μM) | − (− no activity at 60 μM) | 42 ± 12 |  | +++ (+++ inhibition at 10 μM) | 50 ± 10 | 
O=c1c(O)c(-c2ccc(O)c(O)c2)oc2cc(O)c(O)c(O)c12 [Compound 7] | 45 ± 19 | − (− no inhibition at 60 μM) | − (− no activity at 60 μM) | 56 ± 13 |  | +++ (+++ inhibition at 10 μM) | 68 ± 24 | 
O=C(O)c1ccc(-c2cccc(C=NNC(=O)c3cc(O)c(O)c(O)c3)c2)cc1 [Compound 15] | 47 ± 4 | − (− no inhibition at 60 μM) | − (− no activity at 60 μM) | 68 ± 6 |  |  | 37 ± 23 | 
O=c1cc2oc3cc(O)c(O)cc3c(-c3ccccn3)c-2cc1O [Compound 39] | 21 ± 2 |  |  | 60 ± 24 |  |  | 26 ± 0 | inhibited
CC(Cc1ccc(O)c(O)c1)C(C)Cc1ccc(O)c(O)c1 (centres unmarked) [Compound 2] | 54 ± 18 | − (− no inhibition at 60 μM) | − (− no activity at 60 μM) | 35 ± 6 |  |  | 67 ± 20 | 
COC(=O)Oc1nsnc1N1CCOCC1 [Compound 4] | 35 ± 6 | + (+ inhibition at 60 μM) | − (− no activity at 60 μM) | 37 ± 5 |  |  | 68 ± 18 | 
